Measurements from patent US20250382298A1, “NITROGEN-CONTAINING COMPOUND AND USE THEREOF” (SUZHOU GENHOUSE BIO CO., LTD., priority 2022, published 2025).

Legend:
HT-29 cells [1] = assay: Mitotic index analysis, pH3 expression in HT-29 cells; type: cell-based, human; conditions: 24 h treatment
In short: (§1)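 HCT-116 or HT-29 cells treated 24 h with 9-point 3-fold dilutions from 10 μM, then fixed and immunostained for phospho-histone H3 with DRAQ5 counterstain. Near-infrared fluorescence read at 700/800 nm; pH3 expressed as % of DMSO control and EC50 fitted.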

HT-29 cells [2] = assay: Detection of cell proliferation activity by CCK8 method (HT-29); type: cell-based, human; conditions: CCK8, 96 h
In short: (§2)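 Cells seeded at 1500/well (BT-549, 1640 medium) or 2000/well (HT-29, HCT-116, McCoy's 5A), treated next day with 9-point 1:5 dilutions from 10 μM final, triplicate, for 96 h. CCK8 read at 450 nm after 2 h at 37 °C; inhibition versus DMSO, IC50 by non-linear regression.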

BT-549 cells = assay: Detection of cell proliferation activity by CCK8 method (BT-549); type: cell-based; conditions: CCK8, 96 h
In short: as §2

HCT-116 cells [3] = assay: Detection of cell proliferation activity by CCK8 method (HCT-116); type: cell-based; conditions: CCK8, 96 h
In short: as §2

KIF18A = KIF18A (Homo sapiens (Human), UniProt Q8NI77); assay: KIF18A enzymatic activity inhibition, ADP-Glo kit; type: biochemical; conditions: 4 nM KIF18A, 30 μM ATP
Description: In this experiment, an ADP-Glo kit was used to detect the inhibitory activity of the compounds against KIF18A. Each compound was prepared into a 10 mM stock solution with DMSO, which was then diluted at 1:5 to obtain 9 gradients with the initial final concentration set at 10 μM. Meanwhile, a control group and a blank group were also set up. The reaction buffer consisted of 15 mM Tris (pH 7.5), 10 mM MgCl2, and 0.01% Pluronic F-68. 4 nM KIF18A (1467) and the test compound were added to a 384-well plate and incubated at 37° C. for 20 mm. Then, 30 μM ATP was added to initiate the enzymatic reaction, and the plate was incubated at room temperature for 15 min. Finally, the ADP-Glo reagent was added to detect the luminescence intensity, where the luminescence intensity is directly proportional to the ADP content. Inhibition rate (%)=[…]. Sample signal is the value of the compound group, and DMSO signal is the value of the DMSO control group. Then, the inhibition rate at each concentration was calculated, and the IC50 was determined by fitting using the GraphPadPrism 7.0 software.

[4] = Pharmacokinetic test in rats; type: in vivo; conditions: SD rats, PO @5mpk
Description: In this example, the pharmacokinetic behavior of the compounds after intravenous injection (IV) and intragastric (PO) administration in SD rats was tested.
(§3) On the day of administration, rats were weighed for actual body weight and the administration volume was calculated. Each compound was tested in two groups with 3 rats in each group; one group was subjected to administration by single intravenous injection, and the other group was subjected to single intragastric administration. Whole blood samples were collected via the jugular vein at prescribed time points (0.25 h, 0.5 h, 1 h, 2 h, 4 h, 8 h, and 24 h after administration). After blood sample collection, the samples were immediately transferred to labeled commercial sample tubes containing K2-EDTA (0.85-1.15 mg), followed by centrifugation (3200×g, 4° C., 10 min) and plasma collection. The plasma was transferred to a pre-cooled centrifuge tube, frozen in dry ice, and then stored in an ultra-low temperature freezer at −60° C. or lower until the LC-MS/MS analysis.
(§4) Plasma concentrations were determined by the LC-MS/MS method. Plasma drug concentration data for the compounds were processed using a non-compartmental model in the WinNonlin Version 6.3 (Pharsight, Mountain View, CA) pharmacokinetic software. The relevant pharmacokinetic parameters were calculated by a linear-log trapezoidal method.

HCT-116 cells [5] = assay: Mitotic index analysis, pH3 expression in HCT-116 cells; type: cell-based; conditions: 24 h treatment
In short: as §1

OVCAR3 cells [6] = assay: Detection of OVCAR3 cell proliferation activity by CTG method; type: cell-based; conditions: CellTiter-Glo, 7 days
Excerpt: This assay can be used to examine the potency of compounds in inhibiting the proliferation of tumor cells (OVCAR3, HT-29, BT-549, HCT-116). A lower IC50 value indicates high potency of the compound as a KIF18A inhibitor in the following assay setup,
1640 medium; fetal bovine serum; penicillin/streptomycin antibiotics purchased from Wisent; CellTiter-Glo (chemiluminescence detection reagent for cell viability) reagent purchased from Promega; OVCAR3 cell line purchased from Nanjing Cobioer Biosciences Co., Ltd.; Nivo multimode microplate reader (PerkinElmer),
OVCAR3 cells were seeded into a white 96-well plate, with 80 μL of cell suspension containing 2000 OVCAR3 cells added to each well. The cell plate was incubated in a CO2 incubator overnight.
A test compound was 5-fold diluted to the 8th concentration (i.e., from 2 mM to […]) using a multichannel pipette, with duplicate wells set up. To an intermediate plate was added 78 μL of medium, and the serially diluted compound was transferred to the corresponding wells of the intermediate plate at 2 μL/well. The mixture was mixed well and then transferred to the cell plate at 20 μL/well. The concentration of the compound transferred to the cell plate ranged from 10 μM to 0.026 nM. The cell plate was incubated in a CO2 incubator for 7 days. Another cell plate was prepared and read for signal values on the day of compound addition, and these values were used as the maximum values (the Max value in the equation below) in data analysis. To this cell plate was added the chemiluminescence detection reagent for cell viability at 25 μL/well, and the luminescence signals were stabilized by incubation at room temperature for 10 min. Readings were taken using the multimode microplate reader.
To the cell plate was added the chemiluminescence detection reagent for cell viability at 25 μL/well, and the luminescence signals were stabilized by incubation at room temperature for 10 mm. Readings were taken using the multimode microplate reader, […]

OVCAR3 cells [7] = assay: Detection of cell proliferation activity by CCK8 method (OVCAR3); type: cell-based
In short: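 OVCAR3 tumor cells in log-phase growth were trypsinized, counted and plated at 180 μL per well in 96-well plates, with PBS in the outer wells. The following day, compounds were added in 9 concentrations (1:5 dilutions starting at 10 μM final) in triplicate alongside DMSO controls. After 96 h, medium was swapped for 100 μL medium containing 10% CCK8. Plates were incubated 2 h at 37° C and read at 450 nm. Background-corrected inhibition relative to DMSO was fitted by non-linear regression in GraphPad Prism 7.0 to obtain IC50.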

[8] = Pharmacokinetic test in mice; type: in vivo; conditions: BALB/c mice; for AUC / Cmax / half-life: mouse, plasma; for half-life: read-out: t½ (converted)
Description: In this example, the pharmacokinetic behavior of the compounds after intravenous injection (IV) and intragastric (PO) administration in BALB/c mice was tested.
as §3, with “of administration, mice were weighed” for “of administration, rats were weighed”, “groups with 9 mice in each” for “groups with 3 rats in each”, “other group of mice was subjected” for “other group was subjected”, “via the orbit at prescribed” for “via the jugular vein at prescribed”
as §4

[9] = Homo sapiens, OVCAR-3, CCK8, 96 h

Chain of KIF18A (Q8NI77 1-467): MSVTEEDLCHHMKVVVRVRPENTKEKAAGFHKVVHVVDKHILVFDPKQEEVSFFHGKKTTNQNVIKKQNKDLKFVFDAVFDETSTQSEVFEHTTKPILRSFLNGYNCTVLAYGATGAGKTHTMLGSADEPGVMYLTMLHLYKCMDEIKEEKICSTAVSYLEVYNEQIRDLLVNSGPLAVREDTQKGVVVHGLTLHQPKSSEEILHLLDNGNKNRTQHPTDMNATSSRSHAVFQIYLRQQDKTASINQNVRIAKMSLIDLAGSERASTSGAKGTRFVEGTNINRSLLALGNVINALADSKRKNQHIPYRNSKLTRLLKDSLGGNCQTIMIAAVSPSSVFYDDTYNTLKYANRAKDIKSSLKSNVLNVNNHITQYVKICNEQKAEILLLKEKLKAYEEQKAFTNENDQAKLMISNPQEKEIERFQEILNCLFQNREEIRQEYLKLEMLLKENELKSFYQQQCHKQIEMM

Row | Structure (SMILES) | EC50 (HT-29 cells [1]; Homo sapiens) [nM] | IC50 (HT-29 cells [2]; Homo sapiens) [nM] | IC50 (BT-549 cells; Homo sapiens) [nM] | IC50 (HCT-116 cells [3]; Homo sapiens) [nM] | IC50 (KIF18A) [nM] | EC50 (HCT-116 cells [5]; Homo sapiens) [nM] | IC50 (OVCAR3 cells [6]; Homo sapiens, OVCAR-3, 168 h) [nM] | F ([8]; PO @30mpk) [%] | AUC ([8]; 30 mg/kg, PO @30mpk) [µM·h] | Cmax ([8]; 30 mg/kg, PO @30mpk) [µM] | half-life ([8]; 30 mg/kg, PO @30mpk) [h] | IC50 (OVCAR3 cells [7]; [9]) [nM] | further results
1 | O=C(Nc1cn2ccnc2c(N2CCOCC2)n1)c1ccc(NS(=O)(=O)CCO)cc1N1CCC2(CC1)CC2 [Compound 11] | 139 | 146 | 109 | > 10000 | 15.2 | > 10000 | 36 |  |  |  |  |  | F [4]: 25%; AUC ([4]; rat, plasma, 5 mg/kg): 0.604 µM·h; Cmax ([4]; rat, plasma, 5 mg/kg): 0.217 µM; half-life ([4]; rat, plasma, 5 mg/kg, read-out: t½ (converted)): 2.4 h
2 | O=C(Nc1cn2cncc2c(N2CCC(F)(F)CC2)n1)c1ccc(NS(=O)(=O)CCO)cc1N1CCC2(CC1)CC2 [Compound 27] |  |  |  |  | 23.1 |  |  |  |  |  |  |  | EC50 (HT-29 cells [1]): 34.6 nM; IC50 (HT-29 cells [2]): 141 nM; IC50 (BT-549 cells): 81.9 nM; IC50 (HCT-116 cells [3]): > 10000 nM; IC50 (OVCAR3 cells [7]; CCK8, 96 h): 27.2 nM; EC50 (HCT-116 cells [5]): > 10000 nM; IC50 (OVCAR3 cells [6]): 38.6 nM
3 | O=C(Nc1cc2nn[nH]c2c(N2CCC(F)(F)CC2)n1)c1ccc(NS(=O)(=O)CCO)cc1N1CCC2(CC1)CC2 [Compound 28] |  |  |  |  | 33.4 |  |  |  |  |  |  |  | EC50 (HT-29 cells [1]): 77.8 nM; IC50 (HT-29 cells [2]): 321 nM; IC50 (BT-549 cells): 117 nM; IC50 (HCT-116 cells [3]): > 10000 nM; IC50 (OVCAR3 cells [7]; CCK8, 96 h): 23.4 nM; EC50 (HCT-116 cells [5]): > 10000 nM; IC50 (OVCAR3 cells [6]): 27.4 nM
4 | O=C(Nc1cn2ccnc2c(N2CC3(CCC3)C2)n1)c1ccc(NS(=O)(=O)CCO)cc1N1CCC2(CC1)CC2 [Compound 29] | 108 | 335 | 1040 | > 10000 | 63.4 | > 10000 | 220 |  |  |  |  | 206 | 
5 | CC1(S(=O)(=O)Nc2ccc(C(=O)Nc3cn4ccnc4c(N4CCC(F)(F)CC4)n3)c(N3CCC4(CC3)CC4)c2)CC1 [Compound 13] | 235 | 131 | 110 | > 10000 | 187 | > 10000 | 33 |  |  |  |  |  | 

More lines, in order of falling EC50 (HT-29 cells [1]; Homo sapiens), values ahead:

Row | EC50 (HT-29 cells [1]; Homo sapiens) [nM] | IC50 (HT-29 cells [2]; Homo sapiens) [nM] | IC50 (BT-549 cells; Homo sapiens) [nM] | IC50 (HCT-116 cells [3]; Homo sapiens) [nM] | IC50 (KIF18A) [nM] | EC50 (HCT-116 cells [5]; Homo sapiens) [nM] | IC50 (OVCAR3 cells [6]; Homo sapiens, OVCAR-3, 168 h) [nM] | F ([8]; PO @30mpk) [%] | AUC ([8]; 30 mg/kg, PO @30mpk) [µM·h] | Cmax ([8]; 30 mg/kg, PO @30mpk) [µM] | half-life ([8]; 30 mg/kg, PO @30mpk) [h] | IC50 (OVCAR3 cells [7]; [9]) [nM] | Structure (SMILES) | further results
6 | 87 | 336 | 247 | > 10000 | 93.2 | > 10000 | 93 |  |  |  |  |  | Cn1ccc2cc(NC(=O)c3ccc(NS(=O)(=O)CCO)cc3N3CCC4(CC3)CC4)nc(N3CCC(F)(F)CC3)c21 [Compound 18] | 
7 | 42.9 | 75.2 | 209 | > 10000 | 22 | > 10000 |  | 107 | 269 | 14.1 | 39 | 52.9 | CS(=O)(=O)Nc1ccc(C(=O)Nc2cn3c(F)cnc3c(N3CCC(F)(F)CC3)n2)c(N2CC3CCC(C3)C2)c1 [Compound 52] | 
8 | 26.7 | 33.8 | 31.9 | > 10000 | 27.9 | > 10000 |  | 44 | 154 | 6.98 | 146 | 14.6 | CS(=O)(=O)Nc1ccc(C(=O)Nc2cn3ncnc3c(N3CCC(F)(F)CC3)n2)c(N2CCC3(CC2)CC3)c1 [Compound 57] | 
9 | 20 | 40.4 | 53.2 | > 10000 | 19.2 | > 10000 |  |  |  |  |  | 14.6 | CS(=O)(=O)Nc1ccc(C(=O)Nc2cn3cnnc3c(N3CCC(F)(F)CC3)n2)c(N2CC3CCC(C3)C2)c1 [Compound 65] | F ([8]; PO @5mpk): 82%; AUC ([8]; 5 mg/kg, PO @5mpk): 19.9 µM·h; Cmax ([8]; 5 mg/kg, PO @5mpk): 3.56 µM; half-life ([8]; 5 mg/kg, PO @5mpk): 3.9 h
10 | 4.8 | 11.5 | 39.6 | > 10000 | 26 | > 10000 |  | 385 | 221 | 20.5 | 8.2 | 6.5 | CS(=O)(=O)Nc1ccc(C(=O)Nc2cc3cn[nH]c3c(N3CCC(F)(F)CC3)n2)c(N2CC3CCC(C3)C2)c1 [Compound 69] | 
